Here are results for one molecule from patent US20140275257A1, “N-ACETYL CYSTEINE COMPOSITIONS IN THE TREATMENT OF SYSTEMIC LUPUS ERYTHEMATOSUS” (Foundation for the State University of New York, priority 2013, published 2014).

Data set [1] has as its system SLE patients. The data set is described as follows: Fatigue Assessment Scale (FAS) in NAC pilot study. The data set is classed as in vivo, human. The conditions noted are these: for FAS: all NAC doses combined, visit 1 28.5. The text has this:
Fatigue, a nonspecific symptom that is highly prevalent among patients in primary care, is not only an important component of many diseases or disorders, including SLE, but can also play a substantial role in healthy populations. Fatigue is considered the most disabling symptom in a majority of SLE patients. (Krupp, L. B. et al., “A study of fatigue in systemic lupus erythematosus,” J. Rheumatol., 17: 1450-1452 (1990)). The Fatigue Assessment Scale (FAS) is a 10-item unidimensional subjective fatigue scale that measures chronic fatigue. For each statement, one chooses one out of five answer categories varying from “never” to “always: 1=never; 2=sometimes; 3=regularly; 4=often; and 5=always. (Michielsen, H. J. et al., “Psychometric qualities of a brief self-rated fatigue measure: The Fatigue Assessment Scale,” Journal of Psychosomatic Research, 54: 345-352 (2003)).
Fatigue was assessed by using a validated Fatigue Assessment Scale (FAS), a self-questionnaire that provides a subjective measurement of fatigue severity and has shown to have a high degree of internal consistency, validity, and sensitivity to changes in clinical condition, as described in Michielsen, H. J. et al., “Psychometric qualities of a brief self-rated fatigue measure: The Fatigue Assessment Scale,” J. Psychosom. Res., 54(4): 345-352 (2003), the entire content of which is incorporated by reference herein.
Lupus disease activity was measured by SLEDAI and BILAG and fatigue was evaluated by FAC at baseline (visit 1) as well as monthly during a 3-month intervention (visits 2-4) and after a 1-month washout period (visit 5).

In data set [2] the test system is SLE patients. Nature of the data set: Tolerance and safety, double-blind placebo-controlled pilot study of NAC in SLE. The data set is classed as in vivo, human. On the procedure: 36 patients with stable disease were enrolled in a double-blind placebo-controlled treatment trial with N-acetylcysteine (NAC; FDA approval, IND No: 101,320; clinicaltrials.gov identifier: NCT00775476). SLE patients were randomized to receive either placebo (placebo group—dextrose) or NAC (test group) in one of three treatment arms of increasing doses for three months: 600 mg twice daily (Dose 1), 1,200 mg twice daily (Dose 2), or 2,400 mg twice daily (Dose 3). 12 patients were enrolled per treatment arm, 9 received NAC while 3 received placebo.
At each visit, patients were specifically asked about common side effects (nausea, bloating, bad taste) seen in prior trials These side effects were reviewed by the Data Safety and Monitoring Board (DSMB) bi-annually. Tolerance and safety were primary clinical outcomes.
All 24 patients in Dosing Group 1 (1.2 g/day NAC) and 2 (2.4 g/day NAC) completed the treatment and none of the […] in Dosing Group 1 (1.2 g/day NAC) or 2 (2.4 g/day NAC) reported unpleasant smell or taste. Three of 12 patients in Dosing Group 3 (4.8 g/day) dropped out (Table 6) due to 1) heartburn after 26 days, which resolved after discontinuing the capsules; 2) recurrent nausea and one-time vomiting after 46 days, with resolution after discontinuing the capsules; 3) headaches, which were eliminated by halving the dose to 2.4 g/day. Since all three patients reporting intolerance received NAC, in accordance with the DSMP, no higher dose was initiated. Following the last Dosing Group 3 visit, the study was un-blinded.

Data set [3] has as its system anti-double-stranded DNA, C3, and C4. The data set is described as follows: Lupus-relevant laboratory tests (anti-double-stranded DNA, C3, C4). The data set is classed as in vivo, human. An excerpt:
Routine blood tests included complete blood count, liver and kidney function test, urinalysis and lupus-relevant laboratory tests, such as anti-double-stranded DNA, C3, and C4.

For data set [4] the following is noted: Noszal et al. (2000); cited from earlier work.
Data set [5] relates to idiopathic pulmonary fibrosis patients. The conditions noted are these: "high-dose" oral NAC (1.8 g/day); Demedts et al. (2005); cited from earlier work.
Data set [6] concerns GSH in peripheral blood lymphocytes (PBL). The data set is described as follows: HPLC assay of GSH in peripheral blood lymphocytes (PBL) of SLE patients. In kind it is in vivo, human. The procedure: Reduced glutathione (GSH) was measured by reverse phase ion-exchange HPLC using UV detection at 365 nm, as described in Gergely, P. J. et al., “Mitochondrial hyperpolarization and ATP depletion in patients with systemic lupus erythematosus,” Arth. Rheum., 46: 175-190 (2002); and Hanczko, R. et al., “Prevention of hepatocarcinogenesis and acetaminophen-induced liver failure in transaldolase-deficient mice by N-acetylcysteine,” J. Clin. Invest., 119: 1546-1557 (2009). The disclosures of each of these references are incorporated by reference herein in their entirety.
GSH was measured in whole blood and peripheral blood lymphocytes (PBL) before (visit 1; 0 h) and after the first NAC/placebo dose (visit 1; 3 h and 6 h) and upon each monthly follow-up visit (visits 2-4: between 9-11 am after having taken the last NAC/placebo capsule 8 pm the night before), and after 1 month wash-out (visit 5). HPLC analysis required ˜0.25 ml of whole blood and 5×10^6 PBL which were obtained from a total of 10 ml of blood collected at each time point.

Structures are written as SMILES.

Take `CC(=O)N[C@@H](CS)C(=O)O` [NAC, N-acetyl-L-cysteine]: in the data set on SLE patients [1] (NAC dose 1 (1.2 g/day)), the “effect on SLE disease activity, FAS” value is recorded as “did not influence”. Also, the “effect on FAS” value in the data set on SLE patients [1] (NAC dose 2 (2.4 g/day) and dose 3 (4.8 g/day), after 2 months (p=0.002) and 3 months (p=0.004)) is “reduced”. Moreover, the “effect on FAS relative to placebo (mixed model analysis)” value in the data set with SLE patients [1] (NAC dosing group 2, XTMIXED z=−2.08, p=0.038) is recorded as “reduction”. Further, the FAS was 24.1 in the data set with SLE patients [1] (visit 3 (2 months), p=0.0006); 23.9 with SLE patients [1] (visit 4 (3 months), p=0.005); 24.8 in the data set with SLE patients [1] (visit 5 (after 1 month washout), p=0.034). In addition, in the data set on SLE patients [2] (Dosing Group 1 (1.2 g/day NAC) or 2 (2.4 g/day NAC)), the “patients reporting unpleasant smell or taste” value is “none”. Moreover, the “patients dropped out (heartburn; recurrent nausea and vomiting; headaches)” value in the data set with SLE patients [2] (Dosing Group 3 (4.8 g/day), all three received NAC) is listed as “Three of 12”. Moreover, the safety and tolerance result in the data set on SLE patients [2] (all SLE patients, up to 2.4 g/day) was “safe and tolerated”. In the data set on SLE patients [2] (patients receiving 4.8 g/day), the “patients with reversible nausea” value came to 33%. Besides, the C3 result in data set [3] (NAC-treated patients) is recorded as “not affected”. For the same molecule, the C4 entry in data set [3] (NAC-treated patients) is recorded as “not affected”. The molecule also yielded an Anti-DNA in data set [3] (all NAC doses considered together, after 1 month, baseline 78.9±45.2 IU/ml, p=0.049) of 19.5±6.0 IU/ml. For the same molecule, the “half-cell potential, NAC thiol/disulfide pair” value in data set [4] is “about +63 mV”. The “disease severity in idiopathic pulmonary fibrosis” value in data set [5] is reported as “diminished disease severity”. Further, the “GSH in PBL” value in data set [6] (after 3-month treatment with NAC doses 2 and 3 considered together (visit 4; p=0.027)) was “increased”; in data set [6] (after one month washout, NAC dose 3 or doses 2 and 3 combined) it was “dropped below baseline”; in data set [6] (single NAC dose of 1.2 g, after 6 h (p=0.022)), “increased”; in data set [6] (single NAC dose of 2.4 g, after 3 h (p=0.032) and 6 h (p=0.003)) it was “increased”.
